Results taken from ChEMBL document CHEMBL4014283, “Structural insights of SmKDAC8 inhibitors: Targeting Schistosoma epigenetics through a combined structure-based 3D QSAR, in vitro and synthesis strategy” (Bioorg Med Chem, 2017).
The source made the active and inactive calls. The rule behind the calls is not given here.

What was measured:
Histone deacetylase 1 = Histone deacetylase 1 (Homo sapiens, UniProt Q13547); assay: (§1) Inhibition of full length human C-terminal FLAG/His-tagged KDAC1 expressed in baculovirus expression system at 30 uM using substrate A after 60 mins by microfluidic assay relative to control; details: 1 h, 30 µM
Histone deacetylase 1, sequence (Q13547 whole entry, the tested form may be a part): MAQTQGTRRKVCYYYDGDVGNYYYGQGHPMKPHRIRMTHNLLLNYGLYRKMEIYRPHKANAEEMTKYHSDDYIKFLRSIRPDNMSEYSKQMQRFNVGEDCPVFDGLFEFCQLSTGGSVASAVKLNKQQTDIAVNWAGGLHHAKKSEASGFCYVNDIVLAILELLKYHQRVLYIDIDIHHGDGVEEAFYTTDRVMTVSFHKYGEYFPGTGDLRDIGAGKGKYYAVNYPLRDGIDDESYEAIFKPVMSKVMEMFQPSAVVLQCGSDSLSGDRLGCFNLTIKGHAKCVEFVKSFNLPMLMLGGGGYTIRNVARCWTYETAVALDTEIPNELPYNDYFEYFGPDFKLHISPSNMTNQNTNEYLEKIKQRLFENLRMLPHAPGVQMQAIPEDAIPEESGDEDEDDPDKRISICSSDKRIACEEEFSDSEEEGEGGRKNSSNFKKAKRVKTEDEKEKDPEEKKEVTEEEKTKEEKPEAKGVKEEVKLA

[1] = molecular target: KDAC3/NCOR2 (histone deacetylase 3/nuclear receptor corepressor 2 complex) (Homo sapiens, UniProt O15379); assay: (§2) Inhibition of full length human C-terminal His-tagged KDAC3/N-terminal GST-tagged human NCOR2 (395 to 489 residues) expressed in baculovirus expression system at 30 uM using FITC-p53 acetylated peptide as substrate after 60 mins by microfluidic assay; details: probe FITC-p53 acetylated peptide
KDAC3/NCOR2 (histone deacetylase 3/nuclear receptor corepressor 2 complex), sequence (O15379 whole entry, the tested form may be a part): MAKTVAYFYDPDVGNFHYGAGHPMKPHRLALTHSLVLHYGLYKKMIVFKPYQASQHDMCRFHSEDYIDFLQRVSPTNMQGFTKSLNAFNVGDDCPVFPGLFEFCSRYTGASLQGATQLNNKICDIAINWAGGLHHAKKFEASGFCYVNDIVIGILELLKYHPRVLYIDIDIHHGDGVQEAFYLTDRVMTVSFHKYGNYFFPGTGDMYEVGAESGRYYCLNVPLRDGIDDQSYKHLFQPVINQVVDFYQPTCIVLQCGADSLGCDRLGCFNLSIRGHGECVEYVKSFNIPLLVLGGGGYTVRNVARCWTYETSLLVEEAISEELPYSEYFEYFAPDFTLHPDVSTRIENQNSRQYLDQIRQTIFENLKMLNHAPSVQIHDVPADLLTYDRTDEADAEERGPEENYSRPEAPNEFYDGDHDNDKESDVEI
KDAC3/NCOR2 (histone deacetylase 3/nuclear receptor corepressor 2 complex), sequence (Q9Y618 whole entry, further chain, the tested form may be a part): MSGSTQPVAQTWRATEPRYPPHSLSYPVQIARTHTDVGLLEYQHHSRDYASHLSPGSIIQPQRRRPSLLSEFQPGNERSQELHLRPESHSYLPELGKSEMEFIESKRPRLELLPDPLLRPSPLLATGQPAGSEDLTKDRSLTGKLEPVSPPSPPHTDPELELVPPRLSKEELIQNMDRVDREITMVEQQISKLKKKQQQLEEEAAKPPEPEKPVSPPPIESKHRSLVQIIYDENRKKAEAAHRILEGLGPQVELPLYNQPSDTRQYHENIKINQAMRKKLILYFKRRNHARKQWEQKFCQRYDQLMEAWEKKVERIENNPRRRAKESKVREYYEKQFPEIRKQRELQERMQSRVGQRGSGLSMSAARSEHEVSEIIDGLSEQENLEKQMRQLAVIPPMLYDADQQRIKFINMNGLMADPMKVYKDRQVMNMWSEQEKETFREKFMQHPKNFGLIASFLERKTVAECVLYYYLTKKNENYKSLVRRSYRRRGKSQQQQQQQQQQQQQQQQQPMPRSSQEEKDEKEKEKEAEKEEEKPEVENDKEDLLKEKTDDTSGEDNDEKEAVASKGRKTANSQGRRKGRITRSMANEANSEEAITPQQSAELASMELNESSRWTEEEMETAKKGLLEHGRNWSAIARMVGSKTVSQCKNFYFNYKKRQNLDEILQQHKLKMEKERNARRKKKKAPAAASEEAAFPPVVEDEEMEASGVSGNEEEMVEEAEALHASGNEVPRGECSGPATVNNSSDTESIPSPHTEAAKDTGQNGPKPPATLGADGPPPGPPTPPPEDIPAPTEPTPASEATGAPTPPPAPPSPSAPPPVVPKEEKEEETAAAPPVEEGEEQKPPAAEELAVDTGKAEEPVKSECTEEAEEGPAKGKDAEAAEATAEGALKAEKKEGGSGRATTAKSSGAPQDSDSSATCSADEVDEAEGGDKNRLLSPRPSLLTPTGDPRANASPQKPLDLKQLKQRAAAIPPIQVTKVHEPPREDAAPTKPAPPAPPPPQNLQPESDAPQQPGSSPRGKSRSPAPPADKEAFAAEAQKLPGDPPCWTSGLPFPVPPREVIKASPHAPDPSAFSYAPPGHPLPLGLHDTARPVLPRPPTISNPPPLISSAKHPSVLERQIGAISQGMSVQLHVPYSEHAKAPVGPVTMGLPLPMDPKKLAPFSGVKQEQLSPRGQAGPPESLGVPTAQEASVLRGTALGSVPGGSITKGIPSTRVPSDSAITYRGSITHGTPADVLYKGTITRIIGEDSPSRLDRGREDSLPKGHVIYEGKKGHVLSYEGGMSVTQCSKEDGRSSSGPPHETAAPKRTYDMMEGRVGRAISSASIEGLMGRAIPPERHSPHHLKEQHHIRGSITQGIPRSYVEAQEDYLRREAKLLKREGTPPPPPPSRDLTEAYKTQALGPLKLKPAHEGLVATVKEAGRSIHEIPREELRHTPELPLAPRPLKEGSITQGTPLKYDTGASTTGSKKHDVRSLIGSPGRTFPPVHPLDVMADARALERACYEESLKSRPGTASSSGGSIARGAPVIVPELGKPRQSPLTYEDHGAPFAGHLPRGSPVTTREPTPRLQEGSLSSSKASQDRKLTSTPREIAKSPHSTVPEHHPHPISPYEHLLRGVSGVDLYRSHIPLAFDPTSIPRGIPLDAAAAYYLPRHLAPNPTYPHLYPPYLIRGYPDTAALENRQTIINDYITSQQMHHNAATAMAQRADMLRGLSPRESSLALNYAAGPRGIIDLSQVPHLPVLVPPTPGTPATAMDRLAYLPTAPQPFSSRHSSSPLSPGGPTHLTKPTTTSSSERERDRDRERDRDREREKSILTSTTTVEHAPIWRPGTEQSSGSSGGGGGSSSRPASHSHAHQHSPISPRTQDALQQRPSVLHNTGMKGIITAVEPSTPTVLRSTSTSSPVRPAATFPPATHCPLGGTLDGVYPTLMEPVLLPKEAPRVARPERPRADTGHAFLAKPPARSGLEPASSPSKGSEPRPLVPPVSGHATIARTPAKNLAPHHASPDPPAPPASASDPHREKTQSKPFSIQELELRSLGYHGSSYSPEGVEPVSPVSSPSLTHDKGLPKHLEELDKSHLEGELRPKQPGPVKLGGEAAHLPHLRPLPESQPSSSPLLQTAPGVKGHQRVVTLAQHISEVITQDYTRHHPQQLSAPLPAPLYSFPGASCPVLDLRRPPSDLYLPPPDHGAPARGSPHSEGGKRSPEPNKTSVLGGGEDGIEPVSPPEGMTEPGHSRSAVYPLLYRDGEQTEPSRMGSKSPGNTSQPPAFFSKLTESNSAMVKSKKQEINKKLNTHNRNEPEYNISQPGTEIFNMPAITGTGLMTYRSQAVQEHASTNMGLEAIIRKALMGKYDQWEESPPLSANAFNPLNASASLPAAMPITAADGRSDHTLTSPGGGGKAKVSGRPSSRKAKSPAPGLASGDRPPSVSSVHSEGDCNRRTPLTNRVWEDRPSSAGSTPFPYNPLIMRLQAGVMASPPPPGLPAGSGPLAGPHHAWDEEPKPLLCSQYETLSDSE

[2] = molecular target: T1, Histone deacetylase 8 (Schistosoma mansoni) (UniProt A5H660); assay: Inhibition of Schistosoma mansoni KDAC8 at 30 uM using (FAM)-labeled peptide as substrate after 60 mins by microfluidic assay
T1 sequence (whole entry): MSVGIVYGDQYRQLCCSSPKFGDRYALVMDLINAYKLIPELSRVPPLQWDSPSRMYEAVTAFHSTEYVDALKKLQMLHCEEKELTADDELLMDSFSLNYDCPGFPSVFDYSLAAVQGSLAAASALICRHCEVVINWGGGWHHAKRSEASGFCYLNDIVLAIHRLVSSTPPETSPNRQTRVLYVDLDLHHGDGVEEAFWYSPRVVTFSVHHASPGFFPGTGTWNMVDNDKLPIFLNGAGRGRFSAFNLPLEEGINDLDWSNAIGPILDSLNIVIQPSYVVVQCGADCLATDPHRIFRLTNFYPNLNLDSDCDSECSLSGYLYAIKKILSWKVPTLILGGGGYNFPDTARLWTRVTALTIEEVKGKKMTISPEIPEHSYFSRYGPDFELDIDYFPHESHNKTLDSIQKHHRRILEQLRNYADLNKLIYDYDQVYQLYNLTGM

[3] = molecular target: T2, KDAC8 (histone deacetylase 8) (Homo sapiens, UniProt Q9BY41); assay: (§3) Inhibition of full length human C-terminal His-tagged KDAC8 expressed in baculovirus expression system at 30 uM using (FAM)-labeled peptide as substrate after 60 mins by microfluidic assay relative to control; details: probe (FAM)-labeled peptide
T2 sequence (Q9BY41 whole entry): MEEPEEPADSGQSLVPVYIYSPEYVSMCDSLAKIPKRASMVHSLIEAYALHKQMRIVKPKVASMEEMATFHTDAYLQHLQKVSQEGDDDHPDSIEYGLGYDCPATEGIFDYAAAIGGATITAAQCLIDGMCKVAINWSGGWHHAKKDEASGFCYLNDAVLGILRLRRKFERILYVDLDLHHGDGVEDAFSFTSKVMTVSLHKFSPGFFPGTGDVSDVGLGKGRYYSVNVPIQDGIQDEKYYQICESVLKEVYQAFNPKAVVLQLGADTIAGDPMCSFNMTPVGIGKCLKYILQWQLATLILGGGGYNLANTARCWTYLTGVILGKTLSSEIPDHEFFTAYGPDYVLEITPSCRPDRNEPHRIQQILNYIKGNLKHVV

[4] = molecular target: T3, KDAC6 (protein deacetylase HDAC6) (Homo sapiens, UniProt Q9UBN7); assay: (§4) Inhibition of human KDAC6 expressed in baculovirus expression system at 30 uM using FITC-Histone 4 acetylated peptide as substrate after 60 mins by microfluidic assay; details: probe FITC-Histone 4 acetylated peptide
T3 sequence (Q9UBN7 whole entry): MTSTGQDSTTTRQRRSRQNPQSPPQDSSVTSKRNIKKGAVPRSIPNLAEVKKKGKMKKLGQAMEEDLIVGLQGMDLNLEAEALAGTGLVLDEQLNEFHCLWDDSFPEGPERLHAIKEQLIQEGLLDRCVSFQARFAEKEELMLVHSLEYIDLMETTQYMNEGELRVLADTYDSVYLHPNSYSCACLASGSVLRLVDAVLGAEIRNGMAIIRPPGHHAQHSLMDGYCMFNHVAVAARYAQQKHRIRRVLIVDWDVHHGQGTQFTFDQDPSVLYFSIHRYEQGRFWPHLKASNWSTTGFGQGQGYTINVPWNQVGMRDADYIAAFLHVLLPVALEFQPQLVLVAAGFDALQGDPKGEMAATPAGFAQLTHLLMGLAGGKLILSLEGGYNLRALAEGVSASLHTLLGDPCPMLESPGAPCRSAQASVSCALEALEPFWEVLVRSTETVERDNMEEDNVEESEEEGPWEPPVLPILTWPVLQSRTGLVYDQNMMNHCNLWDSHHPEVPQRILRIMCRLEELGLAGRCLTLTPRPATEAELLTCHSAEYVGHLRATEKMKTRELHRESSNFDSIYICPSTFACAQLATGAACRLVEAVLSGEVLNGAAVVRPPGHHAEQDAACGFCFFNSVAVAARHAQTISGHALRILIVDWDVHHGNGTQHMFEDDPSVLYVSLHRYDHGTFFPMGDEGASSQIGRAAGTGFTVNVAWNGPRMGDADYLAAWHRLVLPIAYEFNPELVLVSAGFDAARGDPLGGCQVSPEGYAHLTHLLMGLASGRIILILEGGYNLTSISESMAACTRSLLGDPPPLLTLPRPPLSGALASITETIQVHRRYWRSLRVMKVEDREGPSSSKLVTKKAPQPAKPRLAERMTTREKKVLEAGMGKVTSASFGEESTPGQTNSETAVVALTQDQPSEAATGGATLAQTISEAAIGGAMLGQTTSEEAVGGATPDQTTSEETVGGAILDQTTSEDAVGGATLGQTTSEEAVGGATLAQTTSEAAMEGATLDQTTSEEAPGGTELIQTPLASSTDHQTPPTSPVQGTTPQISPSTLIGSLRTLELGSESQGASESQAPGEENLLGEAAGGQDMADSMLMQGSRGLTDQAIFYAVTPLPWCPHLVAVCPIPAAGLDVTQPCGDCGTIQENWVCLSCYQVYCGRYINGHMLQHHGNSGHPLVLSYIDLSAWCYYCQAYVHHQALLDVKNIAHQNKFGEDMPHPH

[5] = molecular target: Histone deacetylase 3/Nuclear receptor corepressor 2 (HDAC3/NCoR2) (Homo sapiens, UniProt O15379+Q9Y618); assay: as §2; details: 1 h, 30 µM
Histone deacetylase 3/Nuclear receptor corepressor 2 (HDAC3/NCoR2), sequence (O15379 whole entry): as the sequence (O15379 whole entry, the tested form may be a part) above
Histone deacetylase 3/Nuclear receptor corepressor 2 (HDAC3/NCoR2), sequence (Q9Y618 whole entry): as the sequence (Q9Y618 whole entry, further chain, the tested form may be a part) above

Histone deacetylase 8 = molecular target: T4, Histone deacetylase 8 (Homo sapiens, UniProt Q9BY41); assay: as §3; details: 1 h, 30 µM
T4 sequence (Q9BY41 whole entry): T2 sequence (Q9BY41 whole entry)

[6] = molecular target: KDAC1 (histone deacetylase 1) (Homo sapiens, UniProt Q13547); assay: as §1; details: probe substrate A
KDAC1 (histone deacetylase 1), sequence (Q13547 whole entry): as the sequence (Q13547 whole entry, the tested form may be a part) above

[7] = molecular target: T5, Protein deacetylase HDAC6 (Homo sapiens, UniProt Q9UBN7); assay: as §4; details: 1 h, 30 µM
T5 sequence (Q9UBN7 whole entry): T3 sequence (Q9UBN7 whole entry)

| Compound | inhibition (INH) (Histone deacetylase 1) | inhibition at 1 h, 30 µM [1] [%] | inhibition [2] | inhibition at 1 h, 30 µM [3] [%] | inhibition at 1 h, 30 µM [4] [%] | inhibition (INH) [5] | inhibition (INH) (Histone deacetylase 8) | inhibition at 1 h, 30 µM [6] [%] | inhibition (INH) [7] |
| --- | --- | --- | --- | --- | --- | --- | --- | --- | --- |
| Nc1cc(Cl)c(Cl)cc1S(=O)(=O)NO | Not Active | 6.7 | 8.43% | 10.4 | 3.7 | – | – | – | – |
| COC(=O)CC1(C(=O)OC)Nc2cc(Cl)c(Cl)cc2S(=O)(=O)N1 (stereo not given) | Not Active | 6 | 37% | 17 | 3 | – | – | – | – |
| Cc1cc(OCCCCOc2ccc(C#N)cc2)ccc1[N+](=O)[O-] | Not Active | – | inactive | 19 | 3 | Not Active | – | – | – |
| O=C1Nc2cc(Cl)c(Cl)cc2S(=O)(=O)N1O | Not Active | 0.8 | inactive | 23.5 | 12.3 | – | – | – | – |
| O=[N+]([O-])c1c(N2CCN(CCO)CC2)nc2ccccn12 | Not Active | – | 2% | 31 | 1 | Not Active | – | – | – |
| FC(F)(F)c1cccc(OCC2CN=C(S)O2)c1 (stereo not given) | – | 6 | 2% | 16 | 3 | – | – | 2 | – |
| CC1(C)[C@H]2CC[C@H](CNC(=N)CSS(=O)(=O)O)[C@@H]1C2 | Not Active | – | inactive | – | 9 | Not Active | Not Active | – | – |

Further lines, results first:

| inhibition (INH) (Histone deacetylase 1) | inhibition at 1 h, 30 µM [1] [%] | inhibition [2] | inhibition at 1 h, 30 µM [3] [%] | inhibition at 1 h, 30 µM [4] [%] | inhibition (INH) [5] | inhibition (INH) (Histone deacetylase 8) | inhibition at 1 h, 30 µM [6] [%] | inhibition (INH) [7] | Compound |
| --- | --- | --- | --- | --- | --- | --- | --- | --- | --- |
| Not Active | – | 1% | – | 1 | Not Active | Not Active | – | – | Nc1ccccc1SC1CC(=O)N(c2ccccc2Cl)C1=O (stereo not given) |
| – | 6 | inactive | – | – | – | Not Active | 1 | Not Active | CC1=NN(c2ccccc2)C(=O)C1/N=N/c1ccc(S(N)(=O)=O)cc1 (stereo not given) |
| – | 1 | inactive | 19 | 3 | – | – | 2 | – | O=C(O)Cc1ccc(/N=N/c2c(O)c(C(=O)O)cc3ccccc23)cc1 |
| Not Active | 9 | 13% | 24 | 7 | – | – | – | – | COc1ccc([N+](=O)[O-])cc1NS(=O)(=O)c1ccc(C)cc1 |
| – | 1 | 9% | – | – | – | Not Active | 3 | Not Active | CC1=CC(C)(C)N=C(S)N1c1cccc2cc(S(=O)(=O)O)ccc12 |
| – | 1 | 1% | 3 | 2 | – | – | 2 | – | CCOC(=O)Cc1cc(=O)[nH]n(-c2ccccc2)c1=O |
| – | – | inactive | – | – | Not Active | Not Active | 5 | Not Active | CCOC(=O)c1[nH]c(C(=O)O)c(OC(=O)CC)c1C |
| – | 10 | inactive | – | – | – | Not Active | 3 | Not Active | O=C(Nc1cccc([N+](=O)[O-])c1)c1ccc2ccccc2c1O |
| – | 7 | inactive | – | – | – | Not Active | 1 | Not Active | CCOC(=O)C(Cc1ccc(O)cc1)Nc1nc2ccccc2o1 (stereo not given) |
